Results as given in the supplement of paper PMC9386025.

system: OVSAHO; experiment: drug sensitivity score (DSS) (DSS (dimensionless)); higher = more sensitive (stronger drug response); conditions: genetic perturbation: DOX-induced PTK7 shRNA knockdown
Summary of the method: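 Drugs were pre-plated in 384-well plates at five concentrations covering a 10,000-fold range, and 1 000 – 1 500 cells per well were added from patient-derived cultures or from ovarian cancer cell lines whose shRNA had been induced with 100 ng/ml doxycycline for three days or longer. Incubation lasted three days at 37 °C under 5.0 % CO2. A PHERAstar FS then recorded CellTiter-Glo luminescence as the readout of viability. A drug sensitivity score, calculated as described before, summarised the dose-response curve of every drug.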

SMILES | drug sensitivity score
CC(C)NC[C@@H](C(=O)N1CCN(c2ncnc3c2[C@H](C)C[C@H]3O)CC1)c1ccc(Cl)cc1 [Ipatasertib] | < 0
CC(C)C[C@H](NC(=O)CNC(=O)c1cc(Cl)ccc1Cl)B(O)O [Ixazomib] | 5.1
CCNCCS(=O)(=O)NC[C@@]1(c2ccccc2)SC(NC(=O)C(C)(C)C)=NN1C(=O)C(C)(C)C [Litronesib] | 8.2
NC(=O)N1CCC(CC(=O)N2CCC([C@H]3c4ncc(Br)cc4CCc4cc(Cl)cc(Br)c43)CC2)CC1 [Lonafarnib] | 9.4
CCNC(=O)c1noc(-c2cc(C(C)C)c(O)cc2O)c1-c1ccc(CN2CCOCC2)cc1 [Luminespib] | < 0
O=C(Nc1cccc(NC(=O)c2cccc(O)c2O)c1)c1cccc(O)c1O [MST-312] | 9.6
CCN(CC)CCCC(C)Nc1c2ccc(Cl)cc2nc2ccc(OC)cc12 (stereo not drawn) [Mepacrine] | 15.2
S=c1[nH]cnc2nc[nH]c12 [Mercaptopurine] | 0.9
CN(Cc1cnc2nc(N)nc(N)c2n1)c1ccc(C(=O)N[C@@H](CCC(=O)O)C(=O)O)cc1 [Methotrexate] | < 0
CO[C@@H]1[C@H](N(C)C(=O)c2ccccc2)C[C@H]2O[C@]1(C)n1c3ccccc3c3c4c(c5c6ccccc6n2c5c31)C(=O)NC4 [Midostaurin] | 13.1
CNC(=O)c1nn(C)c2c1C(C)(C)Cc1cnc(Nc3ccc(N4CCN(C)CC4)cc3)nc1-2 [Milciclib] | 8.1
CCCCCCCCCCCCCCCCOP(=O)([O-])OCC[N+](C)(C)C [Miltefosine] | 5.9
O=C1c2c(O)ccc(O)c2C(=O)c2c(NCCNCCO)ccc(NCCNCCO)c21 [Mitoxantrone] | 5.1
CCS(=O)(=O)Nc1ccc(Oc2ccc(F)cc2F)c(-c2cn(C)c(=O)c3[nH]ccc23)c1 [Mivebresib] | 19.7
Nc1ccccc1NC(=O)c1ccc(CNc2nccc(-c3cccnc3)n2)cc1 [Mocetinostat] | 10
CCNC(=O)C[C@@H]1N=C(c2ccc(Cl)cc2)c2cc(OC)ccc2-n2c(C)nnc21 [Molibresib] | 6
N#CCNC(=O)c1ccc(-c2ccnc(Nc3ccc(N4CCOCC4)cc3)n2)cc1 [Momelotinib] | 3.6
Cc1cc(OCc2nnc(SC3CCCC3)n2-c2cccnc2)ccc1-c1ccc(S(C)(=O)=O)cc1 [NMS-873] | 5.1

same assay, conditions: genetic perturbation: DOX-induced control shRNA

SMILES | drug sensitivity score
CON(C)C(=O)N1N=C(c2cc(F)ccc2F)S[C@@]1(CCCN)c1ccccc1 [Filanesib] | 6.8
CCCCCCCCc1ccc(CCC(N)(CO)CO)cc1 [Fingolimod] | 6.1
O=c1[nH]c(=O)n([C@H]2C[C@H](O)[C@@H](CO)O2)cc1F [Floxuridine] | 6.6
O=C(NOCCO)c1ccc2cncn2c1Nc1ccc(I)cc1F [GDC-0623] | 1.5
CCOC(=O)CCNc1cc(N2CCc3ccccc3CC2)nc(-c2ccccn2)n1 [GSK-J4] | 11.7
Cc1cc(Nc2cc(CN3CCOCC3)c3nc(C)c(Cc4ccc(Cl)cc4F)n3n2)n[nH]1 [Gandotinib] | 5.1
CC(C)c1cc(-c2n[nH]c(=O)n2-c2ccc3c(ccn3C)c2)c(O)cc1O [Ganetespib] | 10.8
CN(C)C1CCN(C(=O)c2ccc(NC(=O)Nc3ccc(-c4nc(N5CCOCC5)nc(N5CCOCC5)n4)cc3)cc2)CC1 [Gedatolisib] | 13.2
COc1cc2ncnc(Nc3ccc(F)c(Cl)c3)c2cc1OCCCN1CCOCC1 [Gefitinib] | 4.1
Nc1ccn([C@@H]2O[C@H](CO)[C@@H](O)C2(F)F)c(=O)n1 [Gemcitabine] | 4
CCN(CC)Cc1ccc2cc(COC(=O)Nc3ccc(C(=O)NO)cc3)ccc2c1 [Givinostat] | 6.9
COc1cc2c(cc1-c1c(C)noc1C)ncc1[nH]c(=O)n([C@H](C)c3ccccn3)c12 [I-BET151] | 10.3
C=CC(=O)N1CCC[C@@H](n2nc(-c3ccc(Oc4ccccc4)cc3)c3c(N)ncnc32)C1 [Ibrutinib] | 2.6
C#Cc1cccc(Nc2ncnc3cc4c(cc23)OCCOCCOCCO4)c1 [Icotinib] | 0.5
CC(=O)[C@]1(O)Cc2c(O)c3c(c(O)c2[C@@H](O[C@H]2C[C@H](N)[C@H](O)[C@H](C)O2)C1)C(=O)c1ccccc1C3=O [Idarubicin] | 4.8
COc1cc(C(=O)O)ccc1NC(=O)[C@@H]1N[C@@H](CC(C)(C)C)[C@](C#N)(c2ccc(Cl)cc2F)[C@H]1c1cccc(Cl)c1F [Idasanutlin] | < 0
O=C(Nc1ccncc1)C(=O)c1cn(Cc2ccc(Cl)cc2)c2ccccc12 [Indibulin] | 2.2
CC(C)NC[C@@H](C(=O)N1CCN(c2ncnc3c2[C@H](C)C[C@H]3O)CC1)c1ccc(Cl)cc1 [Ipatasertib] | 4.6

SMILES | drug sensitivity score
CC(C)C[C@H](NC(=O)CNC(=O)c1cc(Cl)ccc1Cl)B(O)O [Ixazomib] | 2
CCNCCS(=O)(=O)NC[C@@]1(c2ccccc2)SC(NC(=O)C(C)(C)C)=NN1C(=O)C(C)(C)C [Litronesib] | 9.3
NC(=O)N1CCC(CC(=O)N2CCC([C@H]3c4ncc(Br)cc4CCc4cc(Cl)cc(Br)c43)CC2)CC1 [Lonafarnib] | 9.9
CCNC(=O)c1noc(-c2cc(C(C)C)c(O)cc2O)c1-c1ccc(CN2CCOCC2)cc1 [Luminespib] | 11.3
O=C(Nc1cccc(NC(=O)c2cccc(O)c2O)c1)c1cccc(O)c1O [MST-312] | 6.9
CCN(CC)CCCC(C)Nc1c2ccc(Cl)cc2nc2ccc(OC)cc12 (stereo not drawn) [Mepacrine] | 11.7
S=c1[nH]cnc2nc[nH]c12 [Mercaptopurine] | 7.3
CN(Cc1cnc2nc(N)nc(N)c2n1)c1ccc(C(=O)N[C@@H](CCC(=O)O)C(=O)O)cc1 [Methotrexate] | 4.6
CO[C@@H]1[C@H](N(C)C(=O)c2ccccc2)C[C@H]2O[C@]1(C)n1c3ccccc3c3c4c(c5c6ccccc6n2c5c31)C(=O)NC4 [Midostaurin] | 7.9
CNC(=O)c1nn(C)c2c1C(C)(C)Cc1cnc(Nc3ccc(N4CCN(C)CC4)cc3)nc1-2 [Milciclib] | 9
CCCCCCCCCCCCCCCCOP(=O)([O-])OCC[N+](C)(C)C [Miltefosine] | 3.6
O=C1c2c(O)ccc(O)c2C(=O)c2c(NCCNCCO)ccc(NCCNCCO)c21 [Mitoxantrone] | 3.8
CCS(=O)(=O)Nc1ccc(Oc2ccc(F)cc2F)c(-c2cn(C)c(=O)c3[nH]ccc23)c1 [Mivebresib] | 23.8
Nc1ccccc1NC(=O)c1ccc(CNc2nccc(-c3cccnc3)n2)cc1 [Mocetinostat] | 3.8
CCNC(=O)C[C@@H]1N=C(c2ccc(Cl)cc2)c2cc(OC)ccc2-n2c(C)nnc21 [Molibresib] | 9.4
N#CCNC(=O)c1ccc(-c2ccnc(Nc3ccc(N4CCOCC4)cc3)n2)cc1 [Momelotinib] | 1.7
Cc1cc(OCc2nnc(SC3CCCC3)n2-c2cccnc2)ccc1-c1ccc(S(C)(=O)=O)cc1 [NMS-873] | 7.5
